Test results: patent US9770452B2, “Quinoxaline derivatives as GPR6 modulators” (Takeda Pharmaceutical Company Limited, priority 2012, dated 2017)
Structures can show the parent of a compound that is named as a salt. Where two headings read alike, the source gives them in different places.

Target: T1, GPR6 receptor (Homo sapiens, UniProt P46095)
T1 construct: expressed in transfected cells
Test: Inhibition of cAMP Activity of GPR6 In Vitro Assay (CHO-K1 cells, HTRF cAMP)
Assay type: cell-based
Details: inhibition of constitutive cAMP activity of GPR6 expressed in CHO-K1 cells, approximate IC50, read-out: IC50
Method: Inhibition of cAMP Activity of GPR6 In Vitro Assay
This cell based assay measures the ability of compounds to inhibit the constitutive cAMP activity of GPR6 receptor expressed in CHO-K1 cells. CHO cells were stably expressed with GPR6 receptor, whose expression is controlled by a tetracycline inducable element. The cells were cultured in medium containing F12K, 10% FBS, 1% Penn/Strep, 200 ug/mL Hygromycin. GPR6 receptor expression was induced for 20 hrs with 1 μg/ml doxycycline (sigma D9891) in growth media. After addition of doxycycline cells were plated at a density of 250-500 cells per well in half-volume black clear bottom plates (Costar) and place in an incubator (37°, 5% C(O)2) for 20 hours prior to cAMP assays.
Culture media was removed from cells and they were washed with 50 μL of Ringer's Buffer (MgCl2 0.047 mg/mL, NaH2PO4 0.18 mg/mL, Na2HPO4 0.1 mg/mL, KCl 0.34 mg/mL, NaHC(O)3 1.26 mg/mL, D-glucose 1.8 mg/mL, NaCl 7 mg/mL; pH=7.4). Compounds suspended in DMSO were diluted in Ringer's Buffer containing 0.5% fatty acid free BSA and incubated on cells for 45 min at […] and 5% C(O)2. After incubation cells were incubated for 10 min at room temp with Eu-cAMP tracer solution from a Perkin Elmer Lance HTRF UltracAMP assay kit (TRF0264). Then ULight™-anti-cAMP solution from the Lance HTRF kit was added and incubated on a shaker at room temp for 1 hour prior to HTRF detection in a BMG PolarStar Omega.
IC50 curves were generated with a four-parameter logistic equation using GraphPad Prism 5.03.

T1 sequence (P46095 whole entry): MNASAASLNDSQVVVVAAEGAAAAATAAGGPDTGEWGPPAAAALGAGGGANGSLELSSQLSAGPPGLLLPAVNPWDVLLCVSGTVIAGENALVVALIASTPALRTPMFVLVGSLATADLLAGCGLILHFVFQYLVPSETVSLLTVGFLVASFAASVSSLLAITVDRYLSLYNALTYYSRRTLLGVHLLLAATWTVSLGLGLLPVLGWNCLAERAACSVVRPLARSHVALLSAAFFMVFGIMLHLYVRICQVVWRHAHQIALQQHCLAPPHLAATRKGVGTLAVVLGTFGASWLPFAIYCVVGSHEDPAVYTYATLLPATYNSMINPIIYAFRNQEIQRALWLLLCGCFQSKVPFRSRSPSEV

| Compound | IC50 (compounds of Compound Table 2) [µM] | IC50 (compounds of Compound Table 1) [µM] |
| --- | --- | --- |
| 4-chloro-3-(1-(7-chloro-2-(cyclopropylamino)pyrido[3,4-b]pyrazin-3-yl)piperidine-4-carbonyl)benzonitrile [Cpd 595] | – | 0.478 |
| 5-chloro-1-((1-(2-(cyclopropylamino)pyrido[3,4-b]pyrazin-3-yl)piperidin-4-yl)methyl)pyridin-2(1H)-one [Cpd 532] | – | 0.38 |
| 6-bromo-N-cyclopropyl-3-(4-(2,4-difluorobenzyl)piperidin-1-yl)quinoxalin-2-amine, 2,2,2-trifluoroacetic acid salt [Cpd 495] | – | 0.018 |
| 6-bromo-N-cyclopropyl-3-(4-((2,5-difluorophenyl)fluoromethyl)piperidin-1-yl)quinoxalin-2-amine, 2,2,2-trifluoroacetic acid salt [Cpd 500] | – | 0.16 |
| 7-chloro-N-cyclopropyl-3-(4-(2,4-difluorobenzyl)piperidin-1-yl)pyrido[3,4-b]pyrazin-2-amine [Cpd 592] | – | 0.026 |
| 7-chloro-N-cyclopropyl-3-(4-(2,4-difluorophenoxy)piperidin-1-yl)pyrido[3,4-b]pyrazin-2-amine, 2,2,2-trifluoroacetic acid salt [Cpd 476] | – | 0.015 |
| 7-chloro-N-cyclopropyl-3-(4-((2,4-difluorophenyl)fluoromethyl)piperidin-1-yl)pyrido[3,4-b]pyrazin-2-amine, 2,2,2-trifluoroacetic acid salt [Cpd 489] | – | 0.007 |
| 8-bromo-N-cyclopropyl-3-(4-(2,5-dichlorobenzyl)piperazin-1-yl)quinoxalin-2-amine, 2,2,2-trifluoroacetic acid salt [Cpd 133] | – | 0.032 |
| 8-chloro-3-(4-(5-chloro-2-fluorobenzyl)piperazin-1-yl)-N-cyclopropylpyrido[3,4-b]pyrazin-2-amine, 2,2,2-trifluoroacetic acid salt [Cpd 351] | – | 0.062 |
| 8-chloro-N-cyclopropyl-3-(4-((2,5-difluorophenyl)fluoromethyl)piperidin-1-yl)pyrido[3,4-b]pyrazin-2-amine, 2,2,2-trifluoroacetic acid salt [Cpd 486] | – | 0.098 |
| Cc1cccc(CN2CCN(c3nc4ccccc4nc3NC3CC3)CC2)c1 [Cpd 1, N-cyclopropyl-3-(4-(3-methylbenzyl)piperazin-1-yl)quinoxalin-2-amine, 2,2,2-trifluoroacetic acid salt] | – | 17.7 |
| Cc1cccc(CN2CCN(c3nc4cccnc4nc3NC3CC3)CC2)c1 [Cpd 2, N-cyclopropyl-2-(4-(3-methylbenzyl)piperazin-1-yl)pyrido[2,3-b]pyrazin-3-amine, 2,2,2-trifluoroacetic acid salt] | – | 45.4 |
| Cc1cccc(CN2CCN(c3nc4ncccc4nc3NC3CC3)CC2)c1 [Cpd 3, N-cyclopropyl-3-(4-(3-methylbenzyl)piperazin-1-yl)pyrido[2,3-b]pyrazin-2-amine] | – | 24.6 |
| Clc1cccc(CN2CCN(c3nc4ccccc4nc3NC3CC3)CC2)c1 [Cpd 5, 3-(4-(3-chlorobenzyl)piperazin-1-yl)-N-cyclopropylquinoxalin-2-amine, 2,2,2-trifluoroacetic acid salt] | – | 40.6 |
| COc1ccc(C(=O)N2CCN(c3nc4ccccc4nc3NC3CC3)CC2)cc1Cl [Cpd 9, (3-chloro-4-methoxyphenyl)(4-(3-(cyclopropylamino)quinoxalin-2-yl)piperazin-1-yl)methanone, 2,2,2-trifluoroacetic acid salt] | – | 10.1 |
| c1ccc2nc(N3CCN(Cc4ccncc4)CC3)c(NC3CC3)nc2c1 [Cpd 17, N-cyclopropyl-3-(4-(pyridin-4-ylmethyl)piperazin-1-yl)quinoxalin-2-amine, 2,2,2-trifluoroacetic acid salt] | – | 25.9 |
| c1ccc(CN2CCN(c3nc4ccccc4nc3NC3CC3)CC2)nc1 [Cpd 20, N-cyclopropyl-3-(4-(pyridin-2-ylmethyl)piperazin-1-yl)quinoxalin-2-amine, 22,2,2-trifluoroacetic acid salt] | – | 69.2 |
| Clc1cccc(CN2CCN(c3nc4ccccc4nc3Nc3ccc(Br)cc3)CC2)c1 [Cpd 21, N-(4-bromophenyl)-3-(4-(3-chlorobenzyl)piperazin-1-yl)quinoxalin-2-amine, 2,2,2-trifluoroacetic acid salt] | – | 3.03 |
| Clc1cccc(CN2CCN(c3nc4cccnc4nc3Nc3ccccc3)CC2)c1 [Cpd 22, 2-(4-(3-chlorobenzyl)piperazin-1-yl)-N-phenylpyrido[2,3-b]pyrazin-3-amine, 2,2,2-trifluoroacetic acid salt] | – | 7.67 |
| Cc1ccc(Nc2nc3ccccc3nc2N2CCN(Cc3cccc(Cl)c3)CC2)cc1 [Cpd 30, 3-(4-(3-chlorobenzyl)piperazin-1-yl)-N-(p-tolyl)quinoxalin-2-amine, 2,2,2-trifluoroacetic acid salt] | – | 26.2 |
| COc1ccc(Nc2nc3ccccc3nc2N2CCN(Cc3cccc(Cl)c3)CC2)cc1 [Cpd 31, 3-(4-(3-chlorobenzyl)piperazin-1-yl)-N-(4-methoxyphenyl)quinoxalin-2-amine, 2,2,2-trifluoroacetic acid salt] | – | 6.14 |
| Fc1ccc(Nc2nc3ccccc3nc2N2CCN(Cc3cccc(Cl)c3)CC2)cc1 [Cpd 38, 3-(4-(3-chlorobenzyl)piperazin-1-yl)-N-(4-fluorophenyl)quinoxalin-2-amine, 2,2,2-trifluoroacetic acid salt] | – | 5.73 |
| O=C(c1cc(Cl)ccc1Cl)N1CCN(c2nc3ccccc3nc2NC2CCCC2)CC1 [Cpd 39, (4-(3-(cyclopentylamino)quinoxalin-2-yl)piperazin-1-yl)(2,5-dichlorophenyl)methanone, 2,2,2-trifluoroacetic acid salt] | – | 6.15 |

Now from value to compound, other results behind:

| IC50 (compounds of Compound Table 2) [µM] | Compound | IC50 (compounds of Compound Table 1) [µM] |
| --- | --- | --- |
| 0.84 | N#Cc1ccc2nc(NC3CC3)c(C3CCN(Cc4cc(Cl)ccc4Cl)CC3)nc2c1 [Compound Table 2: Cpd 3, 2-(cyclopropylamino)-3-(1-(2,5-dichlorobenzyl)piperidin-4-yl)quinoxaline-6-carbonitrile, 2,2,2-trifluoroacetic acid salt] | – |
| 0.53 | Cc1cc2nc(NC3CC3)c(C3CCN(Cc4ccc(F)cc4F)CC3)nc2cn1 [Compound Table 2: Cpd 6, N-cyclopropyl-3-(1-(2,4-difluorobenzyl)piperidin-4-yl)-7-methylpyrido[3,4-b]pyrazin-2-amine, 2,2,2-trifluoroacetic acid salt] | – |
| 6.64 | CC1CN(Cc2cc(Cl)ccc2Cl)CCN1c1nc2ccccc2nc1NC1CC1 (stereo not shown) [Compound Table 2: Cpd 7, N-cyclopropyl-3-(4-(2,5-dichlorobenzyl)-2-methylpiperazin-1-yl)quinoxalin-2-amine] | – |
| 79.6 | CC1CN(C(=O)c2cc(Cl)ccc2Cl)CCN1c1nc2ccccc2nc1NC1CC1 (stereo not shown) [Compound Table 2: Cpd 8, (4-(3-(cyclopropylamino)quinoxalin-2-yl)-3-methylpiperazin-1-yl)(2,5-dichlorophenyl)methanone, 2,2,2-trifluoroacetic acid salt] | – |
| 17.7 | CC(C)C1CN(c2nc3ccccc3nc2NC2CC2)CCN1Cc1cc(Cl)ccc1Cl (stereo not shown) [Compound Table 2: Cpd 9, N-cyclopropyl-3-(4-(2,5-dichlorobenzyl)-3-isopropylpiperazin-1-yl)quinoxalin-2-amine] | – |
